Structures can show the parent of a compound that is named as a salt. Where two headings read alike, the source gives them in different places.
What was measured:
[1] = tested on: H1975 cells; test: Cellular growth inhibition (sulforhodamine B); format: cell-based, Human
Experimental: (§2) Human A431, BT474, SKBR3, SKOV3, SW620, H1975 and HT29 carcinoma cells in log phase exponential growth in alpha minimal essential media (αMEM) containing 5% fetal bovine serum (FBS), were harvested by trypsinisation (1× trypsin/EDTA, Gibco Brl), counted, and seeded into 96 well plates (Nunc) at cell densities ranging from 800-1500 cells/well. Half of the cell samples were seeded into plates that were pre-equilibrated and held in an anoxic environment (90% N2, 5% H2, 5% CO2, 37° Q Anaerobic chamber, Coy Laboratory Products). […] At the end of this period the anoxic plates were recovered from the anaerobic camber and held under normoxia in a standard CO2 incubator (37° C.) for 20 hours. All plates were washed free of compound and cells were allowed to proliferate for a further 4 days in αMEM containing 5% FBS+antibiotics. Cells were fixed in trichloroacteic acid (30 min), washed and stained with sulforhodamine B (SRB, 60 min) prior to washing in acidified water. SRB was solubilised and absorption read at 450 nm to calculate cell densities. Inhibition of proliferation was calculated relative to untreated control wells.
(§3) Human A431, H1975 and SKOV3 carcinoma cells in log phase exponential growth in alpha minimal essential media (αMEM) containing 5% fetal bovine serum (FBS), were harvested by trypsinisation (1× trypsin/EDTA, Gibco Brl), counted, and seeded into 96 well plates (Nunc) at cell densities ranging from 800-1500 cells/well. Half of the cell samples were seeded into plates that were pre-equilibrated and held in an anoxic environment (90% N2, 5% H2, 5% CO2, 37° C.; Anaerobic chamber, Coy Laboratory Products). […] At the end of this period the anoxic plates were recovered from the anaerobic camber and held under normoxia in a standard CO2 incubator (37° C.) for 20 hours. All plates were washed free of compound and cells were allowed to proliferate for a further 4 days in αMEM containing 5% FBS+antibiotics. Cells were fixed in trichloroacteic acid (30 min), washed and stained with sulforhodamine B (SRB, 60 min) prior to washing in acidified water. SRB was solubilised and absorption read at 450 nm to calculate cell densities. Inhibition of proliferation was calculated relative to untreated control wells.
They were then washed free of drug and incubated for a further 4 days, before being stained for cell survival with sulforhodamine B.

[2] = tested on: HT29 cells; test: Cellular growth inhibition (sulforhodamine B); format: cell-based, Human; details: Table 7
Experimental: as §2

[3] = tested on: A431 cells; test: Cellular growth inhibition (sulforhodamine B); details: for A431 HCR (Hypoxic Cytotoxicity Ratio): Table 3
[4] = Steady state radiolytic reduction by the CO2.− radical with HPLC-MS; format: physicochemical; details: for Detection of MNA (methyl nitroaromatic) / release of effector following 1-electron reduction: HPLC-MS; for % Loss of prodrug: HPLC-MS at 0.95 reducing equivalents; for release of effector following 1-electron reduction: steady state radiolysis
[5] = Pulse radiolysis (E(1) and fragmentation rate); format: physicochemical; details: for kfrag. (fragmentation rate constant upon 1-electron reduction): benzyl-type radical formation; for E (1)/V (one-electron reduction potential): determined against methylviologen
Experimental: (§1) Pulse radiolysis was used to monitor the 1-electron reduction and stability of the compounds in real time. A linear accelerator delivering short pulses of high energy electrons (2-3 Gy in 200 ns of 4 MeV) equipped with a fast spectophotometric detection system was used. (Anderson et al, J. Phys. Chem. A, 101, 9704-9709, 1997). […] The rate of fragmentation was determined by analysing kinetic transients at wavelengths corresponding to the formation of the benzyl-type radical of the trigger moiety. (Bays et al, J. Am. Chem. Soc., 105, 320-324, 1983; Anderson et al, J. Phys. Chem. A, 101, 9704-9709, 1997).
The pulse radiolysis method, for example, measures the equilibrium constant between the radical anions of the prodrugs, formed upon their 1-electron reduction, and reference standards such as viologen and quinone compounds, from which data the E(1) values of the compounds can be calculated. (Meisel and Czapski. J. Phys. Chem., 1975, 79, 1503-1509.) The E(1) values of prodrugs 17-22, 140-145 were measured by the pulse radiolysis method and determined to range between −0.493V and −0.388V (Table 4).
The rate constants for fragmentation, kfrag, of the 1-electron reduced prodrugs can be measured using pulse radiolysis to observe the time-resolved formation of the absorption spectrum of the benzyl-type radical produced upon fragmentation of the radical anion. (Anderson et al, J. Phys. Chem. A, 1997, 101, 9704-9709.) The kfrag values of prodrugs 19, 20, 140, 141 and 143-145 were measured by pulse radiolysis and are presented in Table 4.
as §1, with “one-electron” for “1-electron”, “prodrug 42” for “the compounds”, “used.” for “used. (Anderson et al, J. Phys. Chem. A, 101, 9704-9709, 1997).”, “1997.)” for “1997).”

[6] = tested on: SKBR3 cells; test: Cellular growth inhibition (sulforhodamine B); format: cell-based, Human; details: Table 3; for IC50: Homo sapiens, SK-BR-3
Experimental: as §2

[7] = tested on: SW620 cells; test: Cellular growth inhibition (sulforhodamine B); format: cell-based, Human; details: Table 3; for IC50: Homo sapiens, SW-620
Experimental: as §2

[8] = target: erbB1 (Homo sapiens, UniProt P00533); test: Inhibition of erbB1 autophosphorylation in EGF-stimulated intact A431 cells (Western blot)
[9] = tested on: SKOV3 cells; test: Cellular growth inhibition (sulforhodamine B); format: cell-based, Human; details: Table 9; for IC50: Homo sapiens, SK-OV-3
Experimental: as §3

[10] = Table 7, 24 hour exposure oxic, read-out: Cellular Growth Inhibition IC50 H1975 Oxic
[11] = Table 7, initial 4 hours anoxic, read-out: Cellular Growth Inhibition IC50 H1975 Anoxic
[12] = 24 hour exposure oxic, read-out: Cellular Growth Inhibition IC50 HT29 Oxic
[13] = initial 4 hours anoxic, read-out: Cellular Growth Inhibition IC50 HT29 Anoxic
[14] = read-out: Cellular Growth Inhibition IC50 A431 Anoxic, Table 7, initial 4 hours anoxic
[15] = read-out: Cellular Growth Inhibition IC50 A431 Oxic, Table 7, 24 hour exposure oxic
[16] = 24 hour exposure entirely oxic, read-out: Cellular Growth Inhibition IC50 SKBR3 Oxic
[17] = first 4 hours anoxic, read-out: Cellular Growth Inhibition IC50 SKBR3 Anoxic
[18] = 24 hour exposure entirely oxic, read-out: Cellular Growth Inhibition IC50 SW620 Oxic
[19] = first 4 hours anoxic, read-out: Cellular Growth Inhibition IC50 SW620 Anoxic
[20] = Homo sapiens, A-431, 24 h, read-out: Cellular Growth Inhibition IC50 A431 Oxic
[21] = Homo sapiens, A-431, read-out: Cellular Growth Inhibition IC50 A431 Anoxic

Chain of erbB1 (P00533 25-1210): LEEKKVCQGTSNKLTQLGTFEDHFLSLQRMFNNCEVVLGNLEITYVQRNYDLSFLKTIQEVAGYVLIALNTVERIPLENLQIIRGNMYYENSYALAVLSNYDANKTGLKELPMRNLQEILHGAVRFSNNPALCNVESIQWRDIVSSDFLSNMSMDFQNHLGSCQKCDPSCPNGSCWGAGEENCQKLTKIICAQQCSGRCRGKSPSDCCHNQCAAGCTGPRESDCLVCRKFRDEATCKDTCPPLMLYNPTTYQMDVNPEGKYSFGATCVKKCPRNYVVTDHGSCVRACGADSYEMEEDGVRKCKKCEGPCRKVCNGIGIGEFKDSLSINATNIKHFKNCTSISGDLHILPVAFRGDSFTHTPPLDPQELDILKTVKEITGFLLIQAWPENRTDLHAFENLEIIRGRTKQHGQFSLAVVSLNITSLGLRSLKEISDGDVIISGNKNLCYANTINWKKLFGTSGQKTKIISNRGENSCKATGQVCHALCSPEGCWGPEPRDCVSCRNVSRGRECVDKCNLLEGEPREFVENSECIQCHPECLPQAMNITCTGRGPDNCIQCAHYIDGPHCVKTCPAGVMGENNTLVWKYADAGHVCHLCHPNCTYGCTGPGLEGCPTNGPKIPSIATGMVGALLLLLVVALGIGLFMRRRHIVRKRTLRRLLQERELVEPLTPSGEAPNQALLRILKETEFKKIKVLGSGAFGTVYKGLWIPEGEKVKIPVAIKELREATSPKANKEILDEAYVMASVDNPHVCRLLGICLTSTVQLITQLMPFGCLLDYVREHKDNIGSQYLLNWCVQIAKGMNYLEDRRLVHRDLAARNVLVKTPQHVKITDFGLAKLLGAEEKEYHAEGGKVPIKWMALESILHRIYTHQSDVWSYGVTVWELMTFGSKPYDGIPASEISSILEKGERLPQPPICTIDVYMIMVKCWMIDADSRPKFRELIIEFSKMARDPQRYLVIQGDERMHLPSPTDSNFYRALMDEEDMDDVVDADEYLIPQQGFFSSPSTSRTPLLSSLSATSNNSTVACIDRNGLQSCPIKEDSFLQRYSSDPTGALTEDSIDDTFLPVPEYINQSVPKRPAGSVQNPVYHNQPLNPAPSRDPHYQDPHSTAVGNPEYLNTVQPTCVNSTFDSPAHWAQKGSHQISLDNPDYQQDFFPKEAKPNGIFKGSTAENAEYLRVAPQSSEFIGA

Compound | H1975 HCR ([1]; Table 7) [fold] | IC50 [1, 10] [nM] | IC50 [1, 11] [nM] | IC50 [2, 12] [nM] | IC50 [2, 13] [nM] | A431 HCR ([3]; Table 7) [fold] | IC50 [3, 14] [nM] | IC50 [3, 15] [nM] | Detection of MNA (methyl nitroaromatic) [4] | % Loss of prodrug [4] [%] | kfrag. (fragmentation rate constant upon 1-electron reduction) [5] [s⁻¹] | E (1)/V (one-electron reduction potential) [5] [V] | melting point | also measured
Cn1cnc([N+](=O)[O-])c1C[N+](C)(C)C/C=C/C(=O)Nc1cc2c(Nc3ccc(F)c(Cl)c3)ncnc2cc1O[C@H]1CCOC1.O=C([O-])C(F)(F)F [Compound 82, (2E)-4-({4-(3-chloro-4-fluoroanilino)-7-[(3S)-tetrahydro-3-furanyloxy]-6-quinazolinyl}amino)-N,N-dimethyl-N-[(1-methyl-4-nitro-1H-imidazol-5-yl)methyl]-4-oxo-2-buten-1-ammonium trifluoroacetate] | 28 | 64500 | 2300 | > 100000 | > 30000 | 62 | 59 | 3600 |  |  |  |  |  | 
CC[N+](CC)(CCOc1ccc(Nc2ncc3cc(-c4c(Cl)cccc4Cl)c(=O)n(C)c3n2)cc1)Cc1c([N+](=O)[O-])nc(C)n1C.[Br-] [Compound 141, 2-(4-{[6-(2,6-dichlorophenyl)-8-methyl-7-oxo-7,8-dihydropyrido[2,3-d]pyrimidin-2-yl]amino}phenoxy)-N-[(1,2-dimethyl-4-nitro-1H-imidazol-5-yl)methyl]N,N-diethylethanammonium bromide] | 18 | 6100 | 370 | 5600 | 320 | 30 | 440 | 12300 | Yes | 83 | 1100 ± 100 | −0.456 |  | HT29 HCR [2]: 18 fold
O=C(/C=C/CN1CCCCC1)Nc1ccc2ncnc(Nc3cccc(Br)c3)c2c1 [Compound 12, (E)-N-(4-(3-bromophenylamino)quinazolin-6-yl)-4-(piperidin-1-yl)but-2-enamide, reference compound] |  |  |  |  |  |  |  |  |  |  |  |  |  | IC50 [6, 16]: 44 nM; IC50 [6, 17]: 28 nM; SKBR3 HCR [6]: 1.6 fold; IC50 [7, 18]: 3810 nM; IC50 [7, 19]: 4010 nM; SW620 HCR [7]: 1.0 fold; IC50 [3, 20]: 10 nM; IC50 [3, 21]: 23 nM; A431 HCR (Hypoxic Cytotoxicity Ratio) [3]: 0.4 fold; IC50 [8]: 45 nM
C[N+](C)(C/C=C/C(=O)Nc1ccc2ncnc(Nc3cccc(Br)c3)c2c1)Cc1ccccc1[N+](=O)[O-] (as salt: bromide) [Compound 18, (2E)-4-{[4-(3-bromoanilino)-6-quinazolinyl]amino}-N,N-dimethyl-N-(2-nitrobenzyl)-4-oxo-2-buten-1-ammonium bromide] |  |  |  |  |  |  |  |  |  |  |  |  | 166 to 169 °C | 
CC[N+](CC)(CCNC(=O)c1c(C)[nH]c(/C=C2\C(=O)Nc3ccc(F)cc32)c1C)Cc1c([N+](=O)[O-])nc(C)n1C.[Br-] [Compound 145, N-[(1,2-dimethyl-4-nitro-1H-imidazol-5-yl)methyl]-N,N-diethyl-2-[({5-[(Z)-(5-fluoro-2-oxo-1,2-dihydro-3H-indol-3-ylidene)methyl]2,4-dimethyl-1H-pyrrol-3-yl}carbonyl)amino]ethanammonium bromide] |  |  |  |  |  |  |  |  | Yes | 87 | 1050 ± 40 | −0.456 |  | 
CC[N+](CC)(CCOc1ccc(Nc2ncc3cc(-c4c(Cl)cccc4Cl)c(=O)n(C)c3n2)cc1)Cc1c([N+](=O)[O-])ncn1C.[Br-] [Compound 140, 2-(4-{[6-(2,6-dichlorophenyl)-8-methyl-7-oxo-7,8-dihydropyrido[2,3-d]pyrimidin-2-yl]amino}phenoxy)-N,N-diethyl-N-[(1-methyl-4-nitro-1H-imidazol-5-yl)methyl]ethanammonium bromide] | 13 | 4700 | 430 | 4600 | 310 | 15 | 510 | 7900 | Yes | 92 | 310 ± 20 | −0.429 |  | HT29 HCR [2]: 15 fold; release of effector following 1-electron reduction [4]: released their respective effector compounds
CN(C)C/C=C/C(=O)Nc1cc2c(Nc3ccc(F)c(C(F)(F)F)c3)ncnc2cn1 [Compound 170] |  |  |  |  |  |  |  |  |  |  |  |  |  | IC50 ([1]; Homo sapiens, NCI-H1975, Table 9, 24 hour exposure oxic, read-out: Cellular Growth Inhibition IC50 H1975 Oxic): 1700 nM; IC50 ([1]; Homo sapiens, NCI-H1975, Table 9, first 4 hours anoxic, read-out: Cellular Growth Inhibition IC50 H1975 Anoxic): 1380 nM; H1975 HCR ([1]; Table 9): 1.2 fold; IC50 ([9]; 24 hour exposure oxic, read-out: Cellular Growth Inhibition IC50 SKOV3 Oxic): 990 nM; IC50 ([9]; first 4 hours anoxic, read-out: Cellular Growth Inhibition IC50 SKOV3 Anoxic): 1800 nM; SKOV3 HCR [9]: 0.7 fold; IC50 ([3]; Homo sapiens, A-431, 4 h, read-out: Cellular Growth Inhibition IC50 A431 Anoxic): 250 nM; IC50 [3, 20]: 240 nM; A431 HCR ([3]; Table 9): 1.5 fold; IC50 [8]: 8 nM
Cn1cnc([N+](=O)[O-])c1C[N+](C)(C)CCCC(=O)Nc1ccc2ncnc(Nc3cccc(Br)c3)c2c1 (as salt: bromide) [Compound 27, 4-{([4-(3-bromoanilino)-6-quinazolinyl]amino}-N,N-dimethyl-N-[(1-methyl-4-nitro-1H-imidazol-5-yl)methyl]-4-oxo-1-butanaminium bromide] |  |  |  |  |  |  |  |  |  |  |  |  | 177 °C (dec.) | 
O=C(/C=C/CN1CCOCC1)Nc1ccc2ncnc(Nc3cccc(Br)c3)c2c1 [Compound 13, (E)-N-(4-(3-bromophenylamino)quinazolin-6-yl)-4-morpholinobut-2-enamide, reference compound] |  |  |  |  |  |  |  |  |  |  |  |  |  | IC50 [6, 16]: 1040 nM; IC50 [6, 17]: 664 nM; SKBR3 HCR [6]: 1.6 fold; IC50 [7, 18]: 27400 nM; IC50 [7, 19]: 29000 nM; SW620 HCR [7]: 1.5 fold; IC50 [3, 20]: 430 nM; IC50 [3, 21]: 784 nM; A431 HCR (Hypoxic Cytotoxicity Ratio) [3]: 0.5 fold; IC50 [8]: 16 nM
CC[N+](CC)(CCNC(=O)c1c(C)[nH]c(/C=C2\C(=O)Nc3ccc(F)cc32)c1C)Cc1c([N+](=O)[O-])ncn1C.O=C([O-])C(F)(F)F [Compound 144, N,N-diethyl-2-[({5-[(Z)-(5-fluoro-2-oxo-1,2-dihydro-3H-indol-3-ylidene)methyl]-2,4-dimethyl-1H-pyrrol-3-yl}carbonyl)amino]-N-[(1-methyl-4-nitro-1H-imidazol-5-yl)methyl]ethanammonium trifluoroacetate] | 3 | 203000 | 57200 | 298000 | 10700 | 7 | 24100 | 146000 | Yes | 68 | 470 ± 20 | −0.449 |  | HT29 HCR [2]: 31 fold; release of effector following 1-electron reduction [4]: released their respective effector compounds
Cn1cnc([N+](=O)[O-])c1C[N+]1(C/C=C/C(=O)Nc2ccc3ncnc(Nc4cccc(Br)c4)c3c2)CCOCC1.O=C[O-] |  |  |  |  |  |  |  |  |  |  |  |  | 125 to 129 °C | 
C[N+](C)(C/C=C/C(=O)Nc1ccc2ncnc(Nc3cccc(Br)c3)c2c1)Cc1ccc([N+](=O)[O-])cc1 (as salt: bromide) [Compound 17, (2E)-4-{[4-(3-bromoanilino)-6-quinazolinyl]amino}-N,N-dimethyl-N-(4-nitrobenzyl)-4-oxo-2-buten-1-ammonium bromide] |  |  |  |  |  |  |  |  |  |  |  |  | 178 to 181 °C | 

From patent US9073916B2, “Prodrug forms of kinase inhibitors and their use in therapy” (AUCKLAND UNISERVICES LIMITED, priority 2009, dated 2015)
